Test results as given in patent US10577363B2, “Substituted piperidine compounds” (EPIZYME, INC., priority 2014, dated 2020).

What follows are compounds tested against SMYD3 (Homo sapiens (Human), UniProt Q9H7B4) (assay: SMYD3 biochemical assay (SPA, 3H-SAM methylation of MEKK2 protein substrate)). Conditions: Table 1A; IC50 values are an average of n = 1 to n = 50; read-out: SMYD3 Biochem IC50.
In short: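 Full-length native human SMYD3 (E. coli-expressed, tags removed) preincubated with compounds 30 min at room temperature, then reaction started with 3H-SAM and GST-tagged MEKK2 protein in 25 mM Tris-Cl pH 8.0, 1 mM TCEP, 0.005% BSG, 0.005% Tween 20. Quenched with unlabelled SAM (100 uM final); 3H-MEKK2 counted by SPA.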

IC50	SMILES
4.5 µM	C[C@H]1C[C@@H](NC(=O)c2cc(C3CC3)on2)CCN1S(=O)(=O)c1cccc(N(C)CCN2CCOCC2)n1 [compound 521, 5-cyclopropyl-N-((2S,4S)-2-methyl-1-((6-(methyl(2-morpholinoethyl)amino)pyridin-2-yl)sulfonyl)piperidin-4-yl)isoxazole-3-carboxamide]
1.09 µM	C[C@H]1C[C@@H](NC(=O)c2cc(C3CC3)on2)CCN1S(=O)(=O)c1ccc(C#N)nc1 [compound 513, N-((2S,4S)-1-((6-cyanopyridin-3-yl)sulfonyl)-2-methylpiperidin-4-yl)-5-cyclopropylisoxazole-3-carboxamide]

Same assay, conditions: average of n = 1 to n = 50; read-out: SMYD3 Biochem IC50

IC50	SMILES
0.512 µM	Cc1ccnc(S(=O)(=O)N2CC[C@H](NC(=O)c3cc(C4CC4)on3)C[C@@H]2C)c1 [compound 741, 5-cyclopropyl-N-((2S,4S)-2-methyl-1-((4-methylpyridin-2-yl)sulfonyl)piperidin-4-yl)isoxazole-3-carboxamide]

Same assay, conditions: read-out: SMYD3 Biochem IC50 (μM)*

SMILES	IC50
NC[C@@H](Cc1ccc(O)c(I)c1)C(=O)N1CCC(NC(=O)c2cc(C3CC3)on2)CC1 [compound 28, (R)-N-(1-(3-amino-2-(4-hydroxy-3-iodobenzyl)propanoyl)piperidin-4-yl)-5-cyclopropylisoxazole-3-carboxamide]	2.04 µM
CC1CNCCC1CC(=O)N1CCC(NC(=O)c2cc(C3CC3)on2)C[C@@H]1C (stereo partly drawn) [compound 206, 5-cyclopropyl-N-((2S)-2-methyl-1-(2-(3-methylpiperidin-4-yl)acetyl)piperidin-4-yl)isoxazole-3-carboxamide]	1.59 µM
CC(C)CS(=O)(=O)N1CC[C@H](NC(=O)c2cc(C3CC3)on2)C[C@H]1C [compound 239, 5-cyclopropyl-N-((2R,4S)-1-(isobutylsulfonyl)-2-methylpiperidin-4-yl)isoxazole-3-carboxamide]	> 10 µM
C[C@H](C(=O)N1CC[C@@H](NC(=O)c2cc(C3CC3)on2)C[C@@H]1C)C1CCNCC1 [compound 358, 5-cyclopropyl-N-((2S,4R)-2-methyl-1-((S)-2-(piperidin-4-yl)propanoyl)piperidin-4-yl)isoxazole-3-carboxamide]	3.4 µM
COCCS(=O)(=O)N1CC[C@H](NC(=O)c2cc(C3CC3)on2)C[C@@H]1C [compound 233, 5-cyclopropyl-N-((2S,4S)-1-((2-methoxyethyl)sulfonyl)-2-methylpiperidin-4-yl)isoxazole-3-carboxamide]	2.36 µM
CCOC(=O)[C@@H]1CC(NC(=O)c2cc(C3CC3)on2)CCN1C(=O)[C@H]1CC[C@H](N)CC1 (stereo partly drawn) [compound 192, ethyl (2S)-1-((1r,4S)-4-aminocyclohexane-1-carbonyl)-4-(5-cyclopropylisoxazole-3-carboxamido)piperidine-2-carboxylate]	7.08 µM
C[C@H]1C[C@H](NC(=O)c2cc(C3CC3)on2)CCN1C(=O)C1CCCC(CN)C1 (stereo partly drawn) [compound 372, N-((2S,4R)-1-(3-(aminomethyl)cyclohexane-1-carbonyl)-2-methylpiperidin-4-yl)-5-cyclopropylisoxazole-3-carboxamide]	5.89 µM
C[C@@H]1C[C@@H](NC(=O)c2cc(C3CC3)on2)CCN1S(=O)(=O)CCc1ccccc1 [compound 344, 5-cyclopropyl-N-((2R,4S)-2-methyl-1-(phenethylsulfonyl)piperidin-4-yl)isoxazole-3-carboxamide]	> 10 µM
C[C@@H]1CC(NC(=O)c2cc(C3CC3)on2)CCN1C[C@H]1CC[C@H](N)CC1 (stereo partly drawn) [compound 113, N-((2R)-1-(((1r,4R)-4-aminocyclohexyl)methyl)-2-methylpiperidin-4-yl)-5-cyclopropylisoxazole-3-carboxamide]	4.59 µM
N[C@H]1CC[C@H](C(=O)N2CC[C@@H](NC(=O)c3cc(C4CC4)on3)C[C@@H]2CO)CC1 [compound 363, N-((2R,4R)-1-((1r,4R)-4-aminocyclohexane-1-carbonyl)-2-(hydroxymethyl)piperidin-4-yl)-5-cyclopropylisoxazole-3-carboxamide]	1.99 µM
NC[C@H](Cc1ccccc1)C(=O)N1CCC(NC(=O)c2cc(C3CC3)on2)CC1 [compound 11, (S)-N-(1-(3-amino-2-benzylpropanoyl)piperidin-4-yl)-5-cyclopropylisoxazole-3-carboxamide]	2.41 µM
C[C@H]1CC(NC(=O)c2cc(C3CC3)on2)CCN1C(=O)CC1(C)CCNCC1 (stereo partly drawn) [compound 115, 5-cyclopropyl-N-((2S)-2-methyl-1-(2-(4-methylpiperidin-4-yl)acetyl)piperidin-4-yl)isoxazole-3-carboxamide]	0.472 µM
C[C@H]1CC(NC(=O)c2cc(C3CC3)on2)CCN1C(=O)C(C)(C)C1CCNCC1 (stereo partly drawn) [compound 165, 5-cyclopropyl-N-((2S)-2-methyl-1-(2-methyl-2-(piperidin-4-yl)propanoyl)piperidin-4-yl)isoxazole-3-carboxamide]	4.73 µM
C[C@@H]1C[C@H](NC(=O)c2cc(C3CC3)on2)CCN1C(=O)CC1CCNCC1 [compound 55, 5-cyclopropyl-N-((2R,4R)-2-methyl-1-(2-(piperidin-4-yl)acetyl)piperidin-4-yl)isoxazole-3-carboxamide]	0.681 µM

Next, values leading:

IC50	SMILES
2.67 µM	C[C@@H]1C[C@@H](NC(=O)c2cc(C3CC3)on2)CCN1C(=O)CCCCN [compound 184, N-((2R,4S)-1-(5-aminopentanoyl)-2-methylpiperidin-4-yl)-5-cyclopropylisoxazole-3-carboxamide]
1.61 µM	CC[C@H]1CN(C(=O)C2CCC(N)CC2)CC[C@@H]1NC(=O)c1cc(C2CC2)on1 (stereo partly drawn) [compound 93, N-((3S,4S)-1-(4-aminocyclohexane-1-carbonyl)-3-ethylpiperidin-4-yl)-5-cyclopropylisoxazole-3-carboxamide]
0.575 µM	CC1(C)CN(C(=O)[C@H]2CC[C@H](N)CC2)CCC1NC(=O)c1cc(C2CC2)on1 (stereo partly shown) [compound 155, N-(1-((1r,4r)-4-aminocyclohexane-1-carbonyl)-3,3-dimethylpiperidin-4-yl)-5-cyclopropylisoxazole-3-carboxamide]
0.379 µM	CC1C(NC(=O)c2cc(C3CC3)on2)CCN(C(=O)[C@H]2CC[C@H](N)CC2)C1C (stereo partly shown) [compound 203, N-(1-((1r,4r)-4-aminocyclohexane-1-carbonyl)-2,3-dimethylpiperidin-4-yl)-5-cyclopropylisoxazole-3-carboxamide]
3.02 µM	O=C(N[C@@H]1CCN(C(=O)CC2CCNCC2)C[C@H]1CO)c1cc(C2CC2)on1 [compound 383, 5-cyclopropyl-N-((3R,4R)-3-(hydroxymethyl)-1-(2-(piperidin-4-yl)acetyl)piperidin-4-yl)isoxazole-3-carboxamide]
> 10 µM	COCCS(=O)(=O)N1CC[C@@H](NC(=O)c2cc(C3CC3)on2)C[C@@H]1C [compound 248, 5-cyclopropyl-N-((2S,4R)-1-((2-methoxyethyl)sulfonyl)-2-methylpiperidin-4-yl)isoxazole-3-carboxamide]
1.53 µM	C[C@@H]1CN(C(=O)CC2CCNCC2)CC[C@H]1NC(=O)c1cc(C2CC2)on1 [compound 147, 5-cyclopropyl-N-((3R,4R)-3-methyl-1-(2-(piperidin-4-yl)acetyl)piperidin-4-yl)isoxazole-3-carboxamide]
5.26 µM	C[C@H]1CC(NC(=O)c2cc(C3CC3)on2)CCN1C(=O)CC(O)CN (stereo partly drawn) [compound 173, N-((2S)-1-(4-amino-3-hydroxybutanoyl)-2-methylpiperidin-4-yl)-5-cyclopropylisoxazole-3-carboxamide]
0.352 µM	CC[C@@H]1CN(C(=O)[C@H]2CC[C@H](N)CC2)CC[C@@H]1NC(=O)c1cc(C2CC2)on1 [compound 190, N-((3R,4S)-1-((1r,4R)-4-aminocyclohexane-1-carbonyl)-3-ethylpiperidin-4-yl)-5-cyclopropylisoxazole-3-carboxamide]
2.52 µM	NCCCC(=O)N1CC[C@@H](NC(=O)c2cc(C3CC3)on2)[C@H](c2ccccc2)C1 [compound 220, N-((3R,4R)-1-(4-aminobutanoyl)-3-phenylpiperidin-4-yl)-5-cyclopropylisoxazole-3-carboxamide]
> 10 µM	CCS(=O)(=O)N1CC[C@@H](NC(=O)c2cc(C3CC3)on2)C[C@H]1C [compound 261, 5-cyclopropyl-N-((2R,4R)-1-(ethylsulfonyl)-2-methylpiperidin-4-yl)isoxazole-3-carboxamide]
6.1 µM	CC[C@@H]1CN(C(=O)CCCN)CC[C@H]1NC(=O)c1cc(C2CC2)on1 [compound 298, N-((3R,4R)-1-(4-aminobutanoyl)-3-ethylpiperidin-4-yl)-5-cyclopropylisoxazole-3-carboxamide]
1.17 µM	N[C@H]1CC[C@H](C(=O)N2CC3CC2CC3NC(=O)c2cc(C3CC3)on2)CC1 (stereo partly shown) [compound 123, N-(2-((1r,4r)-4-aminocyclohexane-1-carbonyl)-2-azabicyclo[2.2.1]heptan-5-yl)-5-cyclopropylisoxazole-3-carboxamide]
7.19 µM	C[C@H]1CC(NC(=O)c2cc(C3CC3)on2)CCN1C(=O)CC1(O)CCNCC1 (stereo partly drawn) [compound 223, 5-cyclopropyl-N-((2S)-1-(2-(4-hydroxypiperidin-4-yl)acetyl)-2-methylpiperidin-4-yl)isoxazole-3-carboxamide]
6.93 µM	CC[C@@H]1CC(NC(=O)c2cc(C3CC3)on2)C[C@H](CC)N1C(=O)CCCN (stereo partly drawn) [compound 302, N-((2S,6R)-1-(4-aminobutanoyl)-2,6-diethylpiperidin-4-yl)-5-cyclopropylisoxazole-3-carboxamide]
14.9 µM	C[C@@H]1CN(C(=O)[C@H](N)Cc2ccc(O)cc2)CCC1NC(=O)c1cc(C2CC2)on1 (stereo partly drawn) [compound 48, N-((3R)-1-(D-tyrosyl)-3-methylpiperidin-4-yl)-5-cyclopropylisoxazole-3-carboxamide]
0.838 µM	C[C@@H]1C[C@H](NC(=O)c2cc(C3CC3)on2)CCN1C(=O)CCCCN [compound 212, N-((2R,4R)-1-(5-aminopentanoyl)-2-methylpiperidin-4-yl)-5-cyclopropylisoxazole-3-carboxamide]
